{
  "source": "patent US20150224164A1",
  "about": "“TREATMENT OF AUTISM SPECTRUM DISORDERS USING GLYCYL-L-2-METHYLPROLYL-L-GLUMATIC ACID” (Neuren Pharmaceuticals Limited, priority 2013, published 2015)",
  "key": {"[1]": {"test_system": "layer 5 cortical neurons of MeCP2-/y mice", "experiment": "Whole-cell recordings of spontaneous EPSCs in acute brain slices (Example 10)", "format": "in vivo, mouse", "conditions": "20 mg/kg i.p. daily P15 to P28-P32; vs vehicle", "description": "For the survival measurements, the nocturnal activity analysis and the immunoblot analysis, G-2-MePE (synthesised Albany Molecular Research Inc. (Albany, N.Y.) and supplied by Neuren Pharmaceuticals Limited) is administered daily via intra-peritoneal injections (20 mg/kg, vehicle=saline, 0.01% BSA). The treatment starts at P15 and is maintained throughout the course of the experiments. For intracellular physiology experiments, the mice are injected daily with G-2-MePE (20 mg/kg body weight, vehicle=saline, 0.01% BSA) for 2 weeks, from P15 to P28-P32 when they are used for acute slice preparation. For optical imaging experiments, mice are injected with G-2-MePE (20 mg/kg body weight, vehicle=saline, 0.01% BSA) daily from the day of the lid suture to the day of imaging. […]\nBorosilicate pipettes (3-5 MΩ, WPI) are pulled using a Sutter P-80 puller (Sutter Instruments). Cells are visualized with an Achroplan 40× water-immersion lens with infrared-DIC optics (Zeiss) and detected with an infrared camera (Hamamatsu) projecting to a video monitor. […] Then in current clamp ˜10 pulses (500 ms, 40-140 pA at 10 pA increments), are applied to quantify evoked firing rates and cellular excitability. […] Analysis is performed using a custom software package written in Matlab, with all events detected according to automated thresholds and blindly verified for each event individually by the experimenter."}, "12-month old rats": {"test_system": "12-month old rats", "experiment": "Morris water maze, spatial reference memory", "format": "in vivo, rat", "conditions": "0.96 or 4.8 mg/day s.c. mini-osmotic pump, vs saline", "description": "We used male Wistar rats 12, 8 or 4 months of age. The Morris water maze test was conducted using a black plastic pool filled to a depth of 25 cm with water colored black with a non-toxic dye. […] The platform remained in that position though the training. The experiment used extra-maze cues (i.e. objects in the room surrounding the pool) that the rats could use to navigate to the platform. Distinctive posters or paintings were hung on the walls. Furniture in the room was not moved during the testing period. The placement of the pool allowed the experimenter an easy access to it from all sides. The pool was emptied and refilled daily during testing, with water at 25° C.+/-2° C. Rats in each group were trained to swim to the submerged platform. The rats received six 60-second trials per day for four consecutive days. A trial began by placing the rat into the water facing the wall of the pool, at one of four start locations (north, south, east, west). The sequence of start locations was chosen pseudorandomly, so that the start location of any given trial was different from that of the previous trial, and no start location was used more than twice during daily training. […] The swim latency for each rat was recorded for each trial for each day of the acquisition and retention phases and changes between phases were examined using Analysis of Variance."}},
  "note": "Where a SMILES comes first, the peptide text is derived from it.",
  "data": [
    {"smiles": "C[C@@]1(C(=O)N[C@@H](CCC(=O)O)C(=O)O)CCCN1C(=O)CN", "note": "[Example G-2-MePE, Glycyl-L-2-methylprolyl-L-glutamic acid] (HELM PEPTIDE1{G.[C[C@@]1(C(=O)[*:2])CCCN1[*:1]].E}$$$$V2.0)", "values": [
      {"measurement": "spontaneous EPSC amplitude", "setting": "[1]", "result": "significantly larger in amplitude"},
      {"measurement": "memory: time needed to reach the platform, retention phase", "setting": "12-month old rats", "result": "improved memory"}
    ]}
  ]
}
